Test results as given in BindingDB's records for doi:10.1016/j.ejmech.2018.08.069 (Kanazawa University, 2018).

assay: Antagonist activity at AR in human LNCAP cells assessed as reduction in DHT-induced cell growth treated for every 2 days for 4 days by hemocytometry

For `O=c1cc(-c2ccccc2O)oc2ccccc12` [2-(2-Hydroxyphenyl)-4H-chromen-4-one (3d)], which IC50 is on record?
Its IC50 is > 10 µM.

For `O=C(/C=C/c1ccccc1O)c1cc(Cl)ccc1O`, which IC50 is on record?
The IC50 was 3.74 µM.

For `O=C1CC(c2ccccc2O)Oc2ccccc21` (stereo not given) [2-(2-Hydroxy-phenyl)-chroman-4-one], which IC50 is on record?
The IC50 was 6.4 µM.

With `CC(C)Oc1ccccc1/C=C/C(=O)c1cc(Br)ccc1O` as the molecule, how does the IC50 read?
Its IC50 is 9.11 µM.

With `COc1ccc(O)c(C(=O)/C=C/c2ccccc2OC)c1` as the molecule, how does the IC50 read?
Its IC50 is > 10 µM.
